Patent US20220030867A1 (priority 2018, published 2022)

Assays:
Fusarium culmorum = test: whole plant or invertebrate; type: in vivo, Fusarium culmorum on wheat spikelets cv. Monsun; details: in Triticum aestivum, read-out: control of Fusarium culmorum
[1] = system: Magnaporthe grisea (Pyricularia oryzae); test: whole plant or invertebrate; type: in vivo, Magnaporthe grisea on rice leaf segments cv. Ballila; details: foliar, read-out: control of Magnaporthe grisea
[2] = system: Magnaporthe grisea (Pyricularia oryzae); test: microbe, parasite or virus in culture; type: cell-based; details: read-out: control of Magnaporthe grisea

Compound | pest or weed control at 200 ppm (Fusarium culmorum) [%] | melting point [°C] | pest or weed control at 200 ppm [1] [%] | inhibition of growth at 200 ppm [2] [%]
C=C(Cl)CC(C)(Cc1ccccc1)C(=O)Nc1cc2cccc(F)c2nc1C (stereo not shown) [Compound E-21, 2-benzyl-4-chloro-N-(8-fluoro-2-methyl-3-quinolyl)-2-methyl-pent-4-enamide] | ≥ 80 | 121 to 123 | ≥ 80 | –
Cc1nc2c(F)cccc2cc1NC(=O)[C@@](C)(Cc1ccccc1)CC(F)(F)F [Compound F-12, (2S)-2-benzyl-4,4,4-trifluoro-N-(8-fluoro-2-methyl-3-quinolyl)-2-methyl-butanamide] | ≥ 80 | – | ≥ 80 | –
CC(C)C[C@](C)(Cc1ccccc1)C(=O)Nc1cnc2c(F)cccc2c1 [Compound F-19, (2R)-2-benzyl-N-(8-fluoro-3-quinolyl)-2,4-dimethyl-pentanamide] | ≥ 80 | – | – | ≥ 80
Cc1c(NC(=O)C(Cc2ccccc2)CC(F)(F)F)cnc2c(F)cccc12 (stereo not shown) [Compound E-45, 2-benzyl-4,4,4-trifluoro-N-(8-fluoro-4-methyl-3-quinolyl)-butanamide] | ≥ 80 | 165 to 167 | ≥ 80 | –
CC(Cc1ccc(F)cc1)(CC(F)(F)F)C(=O)Nc1cnc2c(F)cccc2c1 (stereo not shown) [Compound E-18, 4,4,4-trifluoro-2-[(4-fluorophenyl)methyl]-N-(8-fluoro-3-quinolyl)-2-methyl-butanamide] | – | – | ≥ 80 | –
C#CCC(C)(Cc1ccccc1)C(=O)Nc1cnc2c(F)cccc2c1C (stereo not shown) [Compound E-3, 2-benzyl-N-(8-fluoro-4-methyl-3-quinolyl)-2-methyl-pent-4-ynamide] | – | – | – | ≥ 80
CC(Cc1ccccc1)(CC(F)(F)F)C(=O)Nc1cnc2c(Cl)cccc2c1 (stereo not shown) [Compound E-51, 2-benzyl-N-(8-chloro-3-quinolyl)-4,4,4-trifluoro-2-methyl-butanamide] | ≥ 80 | 104 to 106 | – | –
C=C(C)C[C@](C)(Cc1ccccc1)C(=O)Nc1cc2cccc(F)c2nc1C [Compound F-2, (2R)-2-benzyl-N-(8-fluoro-2-methyl-3-quinolyl)-2,4-dimethyl-pent-4-enamide] | ≥ 80 | – | ≥ 80 | –
CCCCC(C)(Cc1ccccc1)C(=O)Nc1cnc2c(F)cccc2c1 (stereo not shown) [Compound E-27, 2-benzyl-N-(8-fluoro-3-quinolyl)-2-methyl-hexanamide] | – | 135 to 137 | ≥ 80 | –
Cc1nc2c(F)cccc2cc1NC(=O)C(Cc1ccccc1)CC(F)(F)F (stereo not shown) [Compound E-44, 2-benzyl-4,4,4-trifluoro-N-(8-fluoro-2-methyl-3-quinolyl)-butanamide] | ≥ 80 | – | ≥ 80 | –
CC#CCC(Cc1ccccc1)C(=O)Nc1cnc2c(F)cccc2c1 (stereo not shown) [Compound E-29, 2-benzyl-N-(8-fluoro-3-quinolyl)hex-4-ynamide] | – | 218 to 220 | ≥ 80 | –
CC(C)=CC(C)(Cc1ccccc1)C(=O)Nc1cnc2c(F)cccc2c1 (stereo not shown) [Compound E-48, 2-benzyl-N-(8-fluoro-3-quinolyl)-2,4-dimethyl-pent-3-enamide] | ≥ 80 | 167 to 169 | – | –
C=C(C)CC(Cc1ccccc1)C(=O)Nc1cnc2c(F)cccc2c1 (stereo not shown) [Compound E-94, 2-benzyl-N-(8-fluoro-3-quinolyl)-4-methyl-pent-4-enamide] | – | 170 to 172 | – | ≥ 80
CC(Cc1ccccc1)(CC(F)(F)F)C(=O)Nc1cnc2c(F)cccc2c1 (stereo not shown) [Compound E-80, 2-benzyl-4,4,4-trifluoro-N-(8-fluoro-3-quinolyl)-2-methyl-butanamide] | ≥ 80 | – | ≥ 80 | –
C#CCC(C)(Cc1ccccc1)C(=O)Nc1cnc2c(F)cccc2c1 (stereo not shown) [Compound E-26, 2-benzyl-N-(8-fluoro-3-quinolyl)-2-methyl-pent-4-ynamide] | – | 189 to 191 | ≥ 80 | –
CC(Cc1ccccc1)(CC1CC1)C(=O)Nc1cnc2c(F)cccc2c1 (stereo not shown) [Compound E-76, 2-benzyl-3-cyclopropyl-N-(8-fluoro-3-quinolyl)-2-methyl-propanamide] | – | 157 to 159 | ≥ 80 | –
Cc1nc2c(Cl)cccc2cc1NC(=O)C(C)(Cc1ccccc1)CC(C)C (stereo not shown) [Compound E-13, 2-benzyl-N-(8-chloro-2-methyl-3-quinolyl)-2,4-dimethyl-pentanamide] | – | 99 to 100 | ≥ 80 | –
Cc1c(NC(=O)C(C)(Cc2ccccc2)CC(F)(F)F)cnc2c(F)cccc12 (stereo not shown) [Compound E-50, 2-benzyl-4,4,4-trifluoro-N-(8-fluoro-4-methyl-3-quinolyl)-2-methyl-butanamide] | ≥ 80 | 106 to 109 | ≥ 80 | –
C=C(Cl)CC(C)(Cc1ccccc1)C(=O)Nc1cnc2c(F)cccc2c1C (stereo not shown) [Compound E-20, 2-benzyl-4-chloro-N-(8-fluoro-4-methyl-3-quinolyl)-2-methyl-pent-4-enamide] | ≥ 80 | 124 to 126 | ≥ 80 | –

Compound | pest or weed control at 200 ppm (Fusarium culmorum) [%] | melting point [°C] | pest or weed control at 200 ppm [1] [%] | inhibition of growth at 200 ppm [2] [%]
Cc1c(NC(=O)C(Cc2ccccc2)CC(C)C)cnc2c(F)cccc12 (stereo not shown) [Compound E-19, 2-benzyl-N-(8-fluoro-4-methyl-3-quinolyl)-4-methyl-pentanamide] | ≥ 80 | – | ≥ 80 | –
O=C(Nc1cnc2c(F)cccc2c1)C(Cc1ccccc1)CC(F)(F)F (stereo not shown) [Compound E-82, 2-benzyl-4,4,4-trifluoro-N-(8-fluoro-3-quinolyl)butanamide] | ≥ 80 | 161 to 164 | – | –
COC(Cc1ccccc1)(CC(C)C)C(=O)Nc1cc2cccc(F)c2nc1C (stereo not shown) [Compound E-37, 2-benzyl-N-(8-fluoro-2-methyl-3-quinolyl)-2-methoxy-4-methyl-pentanamide] | ≥ 80 | 92 to 94 | – | –
CC#CCC(C)(Cc1ccccc1)C(=O)Nc1cnc2c(F)cccc2c1 (stereo not shown) [Compound E-30, 2-benzyl-N-(8-fluoro-3-quinolyl)-2-methyl-hex-4-ynamide] | – | 136 to 138 | ≥ 80 | –
Cc1cccc2cc(NC(=O)C(C)(Cc3ccccc3)CC(F)(F)F)cnc12 (stereo not shown) [Compound E-59, 2-benzyl-4,4,4-trifluoro-2-methyl-N-(8-methyl-3-quinolyl)-butanamide] | ≥ 80 | 123 to 125 | – | –
CC(C)CC(C)(Cc1ccccc1)C(=O)Nc1cnc2c(F)cccc2c1 (stereo not shown) [Compound E-87, 2-benzyl-N-(8-fluoro-3-quinolyl)-2,4-dimethyl-pentanamide] | ≥ 80 | 140 to 142 | – | –
COC(Cc1ccccc1)(CC(C)C)C(=O)Nc1cnc2c(F)cccc2c1 (stereo not shown) [Compound E-38, 2-benzyl-N-(8-fluoro-3-quinolyl)-2-methoxy-4-methyl-pentanamide] | ≥ 80 | 133 to 135 | – | –
C=C(C)C[C@@](C)(Cc1ccccc1)C(=O)Nc1cc2cccc(F)c2nc1C [Compound F-1, (2S)-2-benzyl-N-(8-fluoro-2-methyl-3-quinolyl)-2,4-dimethyl-pent-4-enamide] | ≥ 80 | – | ≥ 80 | –
C#CCC(Cc1ccccc1)C(=O)Nc1cnc2c(F)cccc2c1C (stereo not shown) [Compound E-95] | – | – | – | ≥ 80
Cc1nc2c(Cl)cccc2cc1NC(=O)C(C)(Cc1ccccc1)CC(F)(F)F (stereo not shown) [Compound E-17, 2-benzyl-N-(8-chloro-2-methyl-3-quinolyl)-4,4,4-trifluoro-2-methyl-butanamide] | – | 47 to 50 | ≥ 80 | –
Cc1nc2c(F)cccc2cc1NC(=O)[C@](C)(Cc1ccccc1)CC(F)(F)F [Compound F-11, (2R)-2-benzyl-4,4,4-trifluoro-N-(8-fluoro-2-methyl-3-quinolyl)-2-methyl-butanamide] | ≥ 80 | – | ≥ 80 | –
C=C(C)C[C@](C)(Cc1ccccc1)C(=O)Nc1cnc2c(F)cccc2c1 [Compound F-22, (2R)-2-benzyl-N-(8-fluoro-3-quinolyl)-2,4-dimethyl-pent-4-enamide] | – | – | – | ≥ 80
C=C(C)C[C@](C)(Cc1ccccc1)C(=O)Nc1cnc2c(F)cccc2c1C [Compound F-6, (2R)-2-benzyl-N-(8-fluoro-4-methyl-3-quinolyl)-2,4-dimethyl-pent-4-enamide] | ≥ 80 | – | ≥ 80 | –
C=C(C)CC(CC)(Cc1ccccc1)C(=O)Nc1cnc2c(F)cccc2c1 (stereo not shown) [Compound E-46, 2-benzyl-2-ethyl-N-(8-fluoro-3-quinolyl)-4-methyl-pent-4-enamide] | – | – | ≥ 80 | –
CC(C)(C)C(Cc1ccccc1)C(=O)Nc1cnc2c(F)cccc2c1 (stereo not shown) [Compound E-88, 2-benzyl-N-(8-fluoro-3-quinolyl)-3,3-dimethyl-butanamide] | ≥ 80 | 212 to 215 | – | –
Cc1nc2c(F)cccc2cc1NC(=O)C(C)(Cc1cccc(F)c1)CC(F)(F)F (stereo not shown) [Compound E-8, 4,4,4-trifluoro-N-(8-fluoro-2-methyl-3-quinolyl)-2-[(3-fluorophenyl)methyl]-2-methyl-butanamide] | ≥ 80 | – | ≥ 80 | –
CC1(C[C@](C)(Cc2ccccc2)C(=O)Nc2cnc3c(F)cccc3c2)CC1 [Compound F-9, (2R)-2-benzyl-N-(8-fluoro-3-quinolyl)-2-methyl-3-(1-methylcyclopropyl)propanamide] | ≥ 80 | – | ≥ 80 | –
CC(Cc1ccccc1)(CC(F)(F)F)C(=O)Nc1cnc2c(F)c(F)ccc2c1 (stereo not shown) [Compound E-60, 2-benzyl-N-(7,8-difluoro-3-quinolyl)-4,4,4-trifluoro-2-methyl-butanamide] | ≥ 80 | 183 to 186 | – | –
